Experimental data: patent US20020035061A1, “COMPOSITIONS AND METHODS FOR TREATING INFECTIONS USING CATIONIC PEPTIDES ALONE OR IN COMBINATION WITH ANTIBIOTICS” (priority 1996, published 2002)
Several values for one entry are separate records, joined by “and”; a condition that tells them apart may be missing. Equal entries are not always repeated. Where two headings read alike, the source gives them in different places.

Assays:
Type in all cases: cell-based
S. epidermidis = tested on: S. epidermidis
P. aeruginosa = settings: for Peptide MIC values: agarose dilution
E. coli = settings: for Peptide MIC values: agarose dilution
[1] = tested on: microorganisms with acquired resistance; assay: microbe, parasite or virus in culture; settings: for Peptide MIC: combination with Mupirocin, in µg/mL
A. calcoaceticus = tested on: A. calcoaceticus
[2] = tested on: various bacterial strains; assay: Broth dilution assay (MIC)
Experimental: Typically 100 μl of calcium and magnesium supplemented Mueller Hinton broth is dispensed into each well of a 96-well microtitre plate and 100 μl volumes of two-fold serial dilutions of the peptide are prepared across the plate. One row of wells receives no peptide and is used as a growth control. Each well is inoculated with approximately 5×10^5 CFU of bacteria and the plate is incubated at 35-37° C. for 16-20 hours.
For example, MIC values in μg/ml are established by broth dilution assay (Table 13) or by agarose dilution assay (Table 14) for a series of cationic peptides against various bacterial strains.

S. pneumoniae = assay: Agarose dilution assay (MIC); settings: for Peptide MIC values: agarose dilution
K. pneumoniae = tested on: K. pneumoniae
[3] = tested on: inherently resistant microorganisms; assay: microbe, parasite or virus in culture
[4] = S. maltophilia 2, Piperacillin section
[5] = peptide + Piperacillin, S. maltophilia 2

ILKKWPWWPWRRK [MBI 11CN]
MIC (S. epidermidis; S. epidermidis SE001): 2 µg/mL
MIC (P. aeruginosa; P. aeruginosa PA003): >128 µg/mL
Peptide MIC values (P. aeruginosa; P. aeruginosa ATCC 27853): >128 µg/mL
Peptide MIC values (P. aeruginosa; P. aeruginosa NCTC 10662): >128 µg/mL
MIC (E. coli; E. coli ECO002): 8 µg/mL
Peptide MIC values (E. coli; E. coli ATCC 25922): 16 µg/mL
Peptide MIC values (E. coli; E. coli NCTC 10418): 4 µg/mL
Peptide MIC + Tobramycin ([1]; A. baumannii ABI001): 16 µg/mL
Tobramycin MIC + Peptide ([1]; A. baumannii ABI001): 4 µg/mL
Peptide MIC Alone ([1]; A. baumannii ABI001, Tobramycin section): 64 µg/mL
Peptide MIC + Piperacillin ([1]; A. calcoaceticus 3): 32 µg/mL
Piperacillin MIC + Peptide ([1]; A. calcoaceticus 3): 16 µg/mL
Peptide MIC Alone ([1]; A. calcoaceticus 3, Piperacillin section): 64 µg/mL
Peptide MIC + Tobramycin ([1]; E. coli EC0006): 0.25 µg/mL
Tobramycin MIC + Peptide ([1]; E. coli EC0006): 4 µg/mL
Peptide MIC Alone ([1]; E. coli EC0006, Tobramycin section): 8 µg/mL
Peptide MIC ([1]; E. faecium): 8
Peptide MIC + Piperacillin ([1]; P. aeruginosa 22): 32 µg/mL
Piperacillin MIC + Peptide ([1]; P. aeruginosa 22): 4 µg/mL
Peptide MIC Alone ([1]; P. aeruginosa 22, Piperacillin section): 64 µg/mL
Peptide MIC + Piperacillin ([1]; P. aeruginosa 23): 4 µg/mL
Piperacillin MIC + Peptide ([1]; P. aeruginosa 23): 64 µg/mL
Peptide MIC Alone ([1]; P. aeruginosa 23, Piperacillin section): 128 µg/mL
Peptide MIC + Tobramycin ([1]; P. aeruginosa PA032): 64 µg/mL
Tobramycin MIC + Peptide ([1]; P. aeruginosa PA032): 4 µg/mL
Peptide MIC Alone ([1]; P. aeruginosa PA032, Tobramycin section): >128 µg/mL
Peptide MIC ([1]; S. aureus): 16
Peptide MIC + Piperacillin ([1]; S. maltophilia 2): 32 µg/mL
Piperacillin MIC + Peptide ([1]; S. maltophilia 2): 16 µg/mL
Peptide MIC Alone [1, 4]: 64 µg/mL
Peptide MIC + Tobramycin ([1]; S. maltophilia SMA029): 64 µg/mL
Tobramycin MIC + Peptide ([1]; S. maltophilia SMA029): 2 µg/mL
Peptide MIC Alone ([1]; S. maltophilia SMA029, Tobramycin section): >128 µg/mL
Peptide MIC + Tobramycin ([1]; S. maltophilia SMA030): 64 µg/mL
Tobramycin MIC + Peptide ([1]; S. maltophilia SMA030): 2 µg/mL
Peptide MIC Alone ([1]; S. maltophilia SMA030, Tobramycin section): >128 µg/mL
FIC ([1]; peptide + Piperacillin, A. calcoaceticus 3): 1.00
FIC ([1]; peptide + Piperacillin, P. aeruginosa 22): 0.52
FIC ([1]; peptide + Piperacillin, P. aeruginosa 23): 0.53
FIC [1, 5]: 0.75
FIC ([1]; peptide + Tobramycin, A. baumannii ABI001): 0.50
FIC ([1]; peptide + Tobramycin, E. coli EC0006): 0.53
FIC ([1]; peptide + Tobramycin, P. aeruginosa PA032): 0.50
FIC ([1]; peptide + Tobramycin, S. maltophilia SMA029): 0.27
FIC ([1]; peptide + Tobramycin, S. maltophilia SMA030): 0.27
MIC (A. calcoaceticus; A. calcoaceticus AC001): 128 µg/mL
MIC ([2]; A. calcoaceticus 8191): 256 µg/mL
MIC ([2]; E. cloacae 13047): >128 µg/mL
MIC ([2]; E. coli 25922): 128 µg/mL
MIC ([2]; E. coli DH1): 64 µg/mL
MIC ([2]; E. coli ECO003): 64 µg/mL
MIC ([2]; E. coli KL4): 64 µg/mL
MIC ([2]; E. faecalis 29212): 64 µg/mL
MIC ([2]; K. pneumoniae 13883): >128 µg/mL
MIC ([2]; K. pneumoniae B44): 64 µg/mL
MIC ([2]; P. aeruginosa 27853): >128 µg/mL
MIC ([2]; P. aeruginosa 8509041): 256 µg/mL
MIC ([2]; P. aeruginosa 9308077): 128 µg/mL
MIC ([2]; P. aeruginosa 9503024): >256 µg/mL
MIC ([2]; P. aeruginosa H650): 256 µg/mL
MIC ([2]; P. aeruginosa H652): 256 µg/mL
MIC ([2]; S. aureus 25923): 32 µg/mL
MIC ([2]; S. aureus 27217): 64 µg/mL
MIC ([2]; S. aureus 29213): 32 µg/mL
MIC ([2]; S. aureus 33593): 64 µg/mL
MIC ([2]; S. aureus 8402093): 32 µg/mL
MIC ([2]; S. aureus 8809014): 32 µg/mL
MIC ([2]; S. aureus 8809025): 64 µg/mL
MIC ([2]; S. epidermidis 14990): 8 µg/mL
MIC ([2]; S. maltophilia 13637): 128 µg/mL
MIC ([2]; S. maltophilia H361): 64 µg/mL
MIC ([2]; S. marcescens 13880): >128 µg/mL
MIC ([2]; S. marcescens B21): >256 µg/mL
MIC (S. pneumoniae; S. pneumoniae SBSPN2): >128 µg/mL
Peptide MIC values (S. pneumoniae; S. pneumoniae 406LE8): >128 µg/mL
Peptide MIC values (S. pneumoniae; S. pneumoniae 60120): >128 µg/mL
Peptide MIC values (S. pneumoniae; S. pneumoniae ATCC 49619): 64 µg/mL
MIC (K. pneumoniae; K. pneumoniae KP002): 128 µg/mL

ILRWPWWPWRRK [MBI 11B7CN]
MIC, Peptide (S. epidermidis; S. epidermidis SE010, unmodified parent peptide): 2 µg/mL
MIC (S. epidermidis; S. epidermidis strain SE003): 2 µg/mL
Peptide MIC + Ceftriaxone ([3]; P. aeruginosa): 64 µg/mL
Peptide MIC Alone ([3]; P. aeruginosa, Ceftriaxone section): 128 µg/mL
Peptide MIC + Piperacillin ([3]; S. aureus MRSA): 2 µg/mL
Peptide MIC Alone ([3]; S. aureus MRSA, Piperacillin section): 4 µg/mL
Peptide MIC Alone ([3]; S. maltophilia, Ceftriaxone section): 32 µg/mL
FIC ([3]; peptide + Ceftriaxone, P. aeruginosa): 0.50
FIC ([3]; peptide + Piperacillin, S. aureus MRSA): 0.50
MIC, Peptide (P. aeruginosa; P. aeruginosa PA004, unmodified parent peptide): 128 µg/mL
MIC (P. aeruginosa; P. aeruginosa strain PA004): 128 µg/mL
MIC, Peptide (E. coli; E. coli ECO005, unmodified parent peptide): 4 µg/mL
MIC (E. coli; E. coli strain ECO002): 8 µg/mL
Ceftriaxone MIC + Peptide ([1]; A. baumannii ABI002): 8 µg/mL
Peptide MIC + Ceftriaxone ([1]; A. baumannii ABI002): 8 µg/mL
Peptide MIC Alone ([1]; A. baumannii ABI002, Ceftriaxone section): 32 µg/mL
Ceftriaxone MIC + Peptide ([1]; A. baumannii ABI005): 8 µg/mL
Peptide MIC + Ceftriaxone ([1]; A. baumannii ABI005): 1 µg/mL
Peptide MIC Alone ([1]; A. baumannii ABI005, Ceftriaxone section): 16 µg/mL
Peptide MIC + Piperacillin ([1]; H. influenzae 1): 1 µg/mL
Piperacillin MIC + Peptide ([1]; H. influenzae 1): 8 µg/mL
Peptide MIC Alone ([1]; H. influenzae 1, Piperacillin section): >128 µg/mL
Peptide MIC + Piperacillin ([1]; S. maltophilia 2): 8 µg/mL
Piperacillin MIC + Peptide ([1]; S. maltophilia 2): 16 µg/mL
Peptide MIC Alone [1, 4]: 128 µg/mL
Peptide MIC + Piperacillin ([1]; S. marcescens 1): 4 µg/mL
Piperacillin MIC + Peptide ([1]; S. marcescens 1): 8 µg/mL
Peptide MIC Alone ([1]; S. marcescens 1, Piperacillin section): >128 µg/mL
FIC ([1]; peptide + Ceftriaxone, A. baumannii ABI002): 0.50
FIC ([1]; peptide + Ceftriaxone, A. baumannii ABI005): 0.56
FIC ([1]; peptide + Piperacillin, H. influenzae 1): 0.13
FIC [1, 5]: 1.00
FIC ([1]; peptide + Piperacillin, S. marcescens 1): 0.27
MIC, Peptide (A. calcoaceticus; A. calcoaceticus AC002, unmodified parent peptide): 2 µg/mL
MIC (A. calcoaceticus; A. calcoaceticus strain AC003): 32 µg/mL
MIC (S. pneumoniae; S. pneumoniae strain SBSPN3): >128 µg/mL
MIC, Peptide (K. pneumoniae; K. pneumoniae KP001, unmodified parent peptide): 4 µg/mL and 8 µg/mL
MIC (K. pneumoniae; K. pneumoniae strain KP0011): 32 µg/mL
